Key:
[1] = test system: animal models of diet-induced obesity; conditions: cited from earlier work
3T3-LI preadipocytes = conditions: in vitro; cited from earlier work
[2] = preclinical studies, therapeutic doses; cited from earlier work
[3] = cited from earlier work
[4] = Franz Cell study, rate of diffusion across a cellulose membrane; format: in vitro ADME; conditions: after 6 hours, transdermal formulation of 1% THCV
Method: A transdermal formulation of 1% THCV was prepared according to Table 1. The THCV formulation was subjected to a Franz Cell study, measuring the rate of diffusion across a cellulose membrane. As illustrated by the results, after 6 hours, 6.08 mg of THCV diffused across the cellulose membrane. The total dose of THCV applied to the membrane was 11.63 mg, and this calculates to a delivered dose of 52.3% of the THCV which is unexpected.

Compound | body weight gain, adipose tissue mass, glucose tolerance and insulin sensitivity [1] | adipocyte differentiation and lipid accumulation (3T3-LI preadipocytes) | safety profile and tolerability [2] | further results
CCCCCCc1nc(-c2ccc(Cl)cc2)n(-c2ccc(Cl)cc2Cl)n1 [LH-21] | reduce body weight gain, decrease adipose tissue mass, and improve glucose tolerance and insulin sensitivity | inhibit adipocyte differentiation and lipid accumulation | favorable safety profiles and are well-tolerated at therapeutic doses | 
Cc1c(C(=O)NN2CCCCC2)nn(-c2ccc(Cl)cc2Cl)c1-c1ccc(Cl)cc1 [rimonabant] | reduce body weight gain, decrease adipose tissue mass, and improve glucose tolerance and insulin sensitivity |  |  | clinical safety ([3]; marketed use, later withdrawn): increased risk of psychiatric adverse effects
C[C@H](NC(=O)C(C)(C)Oc1ccc(C(F)(F)F)cn1)[C@@H](Cc1ccc(Cl)cc1)c1cccc(C#N)c1 [taranabant] | reduce body weight gain, decrease adipose tissue mass, and improve glucose tolerance and insulin sensitivity |  |  | body weight and metabolic parameters in clinical trials ([3]; clinical trials for the treatment of obesity): promising results in reducing body weight and improving metabolic parameters
CCCCCc1cc(O)cc(O)c1 [Olivetol] | reduce body weight gain, decrease adipose tissue mass, and improve glucose tolerance and insulin sensitivity | inhibit adipocyte differentiation and lipid accumulation | favorable safety profiles and are well-tolerated at therapeutic doses | 
Tetrahydrocannabivarin [THCV] |  |  |  | delivered dose of the THCV ([4]; 6.08 mg of 11.63 mg applied): 52.3%; THCV diffused across the cellulose membrane ([4]; total dose applied 11.63 mg): 6.08 mg

— patent publication US20250352559A1, “Transdermal Delivery Composition for Delivery of at least one Glucose Controlling Agent, and Method of Delivering at least one Glucose Controlling Agent” (Skinvisible Pharmaceuticals, Inc., priority 2024, published 2025)
